Measured values as given in patent US20240327415A1, “Multicomponent Complexes, Including Salts, Crystalline Forms, and Hydrates and Solvates of ENT1 Inhibitors” (iTeos Belgium SA, priority 2023, published 2024).
Structures can show the parent of a compound that is named as a salt. One block for each molecule: values may come before it.

Key:
Format in all cases: physicochemical
[1] = Variable Temperature X-Ray Powder Diffraction (VT-XRPD); design: key: Crystalline Form 2 di(hydrogen sulfate) trihydrate; Crystalline Form 5 di(hydrogen sulfate); PC: Poorly Crystalline; settings: second Heating, hold 30 min
Description: (§1) In the examples below, VT-XRPD analysis was carried out on a Philips X'Pert Pro Multipurpose diffractometer equipped with a temperature chamber. The samples were scanned between 4 and 36° 2θ using Cu K radiation (α1 λ=1.54060 Å; α2=1.54443 Å; β=1.39225 Å; α1: α2 ratio=0.5; most, if not all, B radiation is removed from the beam using an X-ray mirror) running in Bragg-Brentano geometry (step size 0.008° 2θ) using 40 kV/40 mA generator settings. Measurements were carried out from ambient temperature to an upper limit of 250° C., with a final measurement taken after cooling.
as §1, with “VT-XRPD” for “In the examples below, VT-XRPD”, “Å; β2=1.39225” for “Å; β=1.39225”, “Å; α1:α2” for “Å; α1: α2”, “all, β” for “all, B”

[2] = particle size distribution (Mastersizer 2000)
Description: In Example 5, the particle size distribution of solids was measured using a Mastersizer 2000 instrument and the method is detailed below.

[3] = solution stability in 1-propanol:water (80:20% v/v) at 50° C. (Example 8)
Description: Example 8-Solution Stability of Compound 1 di(hydrogen sulfate): As per Table 44, weighed amounts (mg) of Compound 1 (free base) were added to 5×1.5 mL screw cap vials. Sulfuric acid equivalents were added to each vial as solutions in volumes of 1-propanol: water (80:20% v/v) as further set forth in Table 44. Salt formation occurred in situ. The target free base concentration was about 186 mg/mL. The solutions were stirred at 50° C. for about 24 hours. […] Subsamples (50 μL) of the solutions were extracted for HPLC analysis after 2, 4, 6, and 23 hours of stirring at 50° C.

[4] = Variable Temperature X-Ray Powder Diffraction (VT-XRPD); design: key: M4: Crystalline Form 4 mono(hydrogen sulfate); M8: Crystalline Form 8 mono(hydrogen sulfate); Amorphous mono(hydrogen sulfate)
Description: as §1
as §1, with “VT-XRPD” for “In the examples below, VT-XRPD”, “Å; β2=1.39225” for “Å; β=1.39225”, “Å; α1:α2” for “Å; α1: α2”, “all, β” for “all, B”

[5] = After complete equilibration, 3 days post-drying (moisture content = 6.07%)
[6] = Before complete equilibration, 24 hr post-drying (moisture content = 4.33%)
[7] = 1-propanol:water (80:20% v/v), 50° C., Acid Equiv. 1.90
[8] = 1-propanol:water (80:20% v/v), 50° C., Acid Equiv. 1.95
[9] = 1-propanol:water (80:20% v/v), 50° C., Acid Equiv. 2.00
[10] = 1-propanol:water (80:20% v/v), 50° C., Acid Equiv. 2.05
[11] = 1-propanol:water (80:20% v/v), 50° C., Acid Equiv. 2.10

VT-XRPD Results ([1]; 120° C.): 5
VT-XRPD Results ([1]; 130° C.): 5
D10 [2, 5]: 6.32 μm
D50 [2, 5]: 32.90 μm
D90 [2, 5]: 84.73 μm
D10 [2, 6]: 17.596 μm
D50 [2, 6]: 46.785 μm
D90 [2, 6]: 109.799 μm
Compound: CCCN1CCNCCCNC(=O)c2cc(OC)c(OC)c(c2)OCCC[C@@H](OC(=O)c2cc(OC)c(OC)c(OC)c2)CC1

Compound: COc1cc(C(=O)O[C@@H]2CCCOc3cc(cc(OC)c3OC)C(=O)NCCCN3CCCN(CC2)CC3)cc(OC)c1OC [Compound 1 di(hydrogen sulfate)]
lowering of purity at the T23h timepoint versus earlier samples ([3]; 1-propanol:water (80:20% v/v), 50° C.): about 0.8 % area
solution purity ([3]; 1-propanol:water (80:20% v/v), 50° C., 2, 4, 6 and 23 hours): 98.7-99.7 % area
HPLC Conc. T2 h [3, 7]: 176 mg/mL
HPLC Conc. T4 h [3, 7]: 167 mg/mL
HPLC Conc. T6 h [3, 7]: 183 mg/mL
HPLC Conc. T23 h [3, 7]: 164 mg/mL
HPLC Purity T2 h [3, 7]: 99.70 % area
HPLC Purity T4 h [3, 7]: 99.67 % area
HPLC Purity T6 h [3, 7]: 99.58 % area
HPLC Purity T23 h [3, 7]: 98.94 % area
HPLC Conc. T2 h [3, 8]: 175 mg/mL
HPLC Conc. T4 h [3, 8]: 169 mg/mL
HPLC Conc. T6 h [3, 8]: 179 mg/mL
HPLC Conc. T23 h [3, 8]: 162 mg/mL
HPLC Purity T2 h [3, 8]: 99.60 % area
HPLC Purity T4 h [3, 8]: 99.61 % area
HPLC Purity T6 h [3, 8]: 99.53 % area
HPLC Purity T23 h [3, 8]: 99.00 % area
HPLC Conc. T2 h [3, 9]: 170 mg/mL
HPLC Conc. T4 h [3, 9]: 165 mg/mL
HPLC Conc. T6 h [3, 9]: 169 mg/mL
HPLC Conc. T23 h [3, 9]: 170 mg/mL
HPLC Purity T2 h [3, 9]: 99.66 % area
HPLC Purity T4 h [3, 9]: 99.58 % area
HPLC Purity T6 h [3, 9]: 99.43 % area
HPLC Purity T23 h [3, 9]: 98.78 % area
HPLC Conc. T2 h [3, 10]: 166 mg/mL
HPLC Conc. T4 h [3, 10]: 165 mg/mL
HPLC Conc. T6 h [3, 10]: 173 mg/mL
HPLC Conc. T23 h [3, 10]: 165 mg/mL
HPLC Purity T2 h [3, 10]: 99.68 % area
HPLC Purity T4 h [3, 10]: 99.52 % area
HPLC Purity T6 h [3, 10]: 99.42 % area
HPLC Purity T23 h [3, 10]: 98.85 % area
HPLC Conc. T2 h [3, 11]: 166 mg/mL
HPLC Conc. T4 h [3, 11]: 164 mg/mL
HPLC Conc. T6 h [3, 11]: 168 mg/mL
HPLC Conc. T23 h [3, 11]: 167 mg/mL
HPLC Purity T2 h [3, 11]: 99.60 % area
HPLC Purity T4 h [3, 11]: 99.62 % area
HPLC Purity T6 h [3, 11]: 99.47 % area
HPLC Purity T23 h [3, 11]: 98.89 % area
overall solution stability ([3]; 1-propanol:water solvent system at 50° C.): substantial stability
concentration of the solutions by HPLC ([3]; input free base concentration 186 mg/mL, 50° C.): 162000 to 183000 µg/mL

Compound: COc1cc(C(=O)O[C@@H]2CCCOc3cc(cc(OC)c3OC)C(=O)NCCCN3CCCN(CC2)CC3)cc(OC)c1OC.O=S(=O)(O)O
VT-XRPD Results ([4]; Cooling, 30° C., hold 10 min): M8
VT-XRPD Results ([4]; Heating, 40° C., hold 60 min): M8
VT-XRPD Results ([4]; Heating, 50° C., hold 60 min): M8
VT-XRPD Results ([4]; Heating, 70° C., hold 60 min): M8
VT-XRPD Results ([4]; second Heating, 50° C., hold 60 min): M8
VT-XRPD Results ([4]; second Heating, 70° C., hold 60 min): M8
VT-XRPD Results ([4]; second Heating, 90° C., hold 60 min): Amorphous
VT-XRPD Results ([4]; second Heating, 100° C., hold 60 min): Amorphous
VT-XRPD Results ([4]; second Heating, 110° C., hold 60 min): Amorphous
